Reference: patent US20250388583A1, “COMPOUNDS AND METHOD FOR PKMYT1 INHIBITION” (Engine Biosciences Pte. Ltd., priority 2022, published 2025)

What was measured:
PKMYT1 = PKMYT1 (Homo sapiens (Human), UniProt Q99640); experiment: In vitro assay: kinase binding to immobilized ligand, captured kinase measured by qPCR
LCK = LCK (Homo sapiens (Human), UniProt P06239); experiment: as above
Excerpt: Example B-1: In Vitro Assay
Compounds that bind the kinase active site and directly (sterically) or indirectly (allosterically) prevent kinase binding to an immobilized ligand and reduce the amount of kinase captured on the solid support. Screening “hits” were identified by measuring the amount of kinase captured in test versus control samples by using a quantitative, precise and ultra-sensitive qPCR method that detect the associated DNA label. In a similar manner, dissociation constants (Kd's) for test compound-kinase interactions were calculated by measuring the amount of kinase captured on the solid support as a function of the test compound concentration.

LCK, sequence (P06239 whole entry): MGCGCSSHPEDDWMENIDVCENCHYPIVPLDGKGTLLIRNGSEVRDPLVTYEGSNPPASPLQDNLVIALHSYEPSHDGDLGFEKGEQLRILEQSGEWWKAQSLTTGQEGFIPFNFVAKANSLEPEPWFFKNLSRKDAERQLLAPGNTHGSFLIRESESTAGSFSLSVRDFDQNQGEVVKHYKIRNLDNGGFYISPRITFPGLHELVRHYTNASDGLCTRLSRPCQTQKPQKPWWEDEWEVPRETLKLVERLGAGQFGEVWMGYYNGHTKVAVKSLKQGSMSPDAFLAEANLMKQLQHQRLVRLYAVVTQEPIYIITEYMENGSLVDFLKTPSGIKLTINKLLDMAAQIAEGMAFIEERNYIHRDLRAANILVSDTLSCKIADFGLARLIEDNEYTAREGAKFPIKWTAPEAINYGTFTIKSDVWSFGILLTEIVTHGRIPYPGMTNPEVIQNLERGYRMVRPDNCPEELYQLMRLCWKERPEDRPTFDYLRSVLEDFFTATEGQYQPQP
PKMYT1, sequence (Q99640 whole entry): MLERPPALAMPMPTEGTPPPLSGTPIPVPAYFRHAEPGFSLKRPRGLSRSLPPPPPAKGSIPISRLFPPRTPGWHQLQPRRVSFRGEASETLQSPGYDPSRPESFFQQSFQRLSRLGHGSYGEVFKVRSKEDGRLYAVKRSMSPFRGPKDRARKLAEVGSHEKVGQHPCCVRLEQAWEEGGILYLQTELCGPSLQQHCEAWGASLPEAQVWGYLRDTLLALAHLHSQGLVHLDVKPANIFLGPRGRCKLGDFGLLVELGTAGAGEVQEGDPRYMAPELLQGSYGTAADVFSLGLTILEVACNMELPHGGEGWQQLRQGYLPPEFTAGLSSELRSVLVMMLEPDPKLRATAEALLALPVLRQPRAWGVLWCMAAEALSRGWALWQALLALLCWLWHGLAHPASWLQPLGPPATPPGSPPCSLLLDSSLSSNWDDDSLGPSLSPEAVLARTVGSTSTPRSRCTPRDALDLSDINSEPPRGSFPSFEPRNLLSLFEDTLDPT

Row | Compound | IC50 (PKMYT1) [nM] | IC50 (LCK) [nM]
1 | Cc1ncc2c(C(N)=O)c(N)n(-c3c(C)c(O)cc(F)c3C)c2n1 (atropisomer, axis not shown) [Compound 606, 6-amino-7-(3-fluoro-5-hydroxy-2,6-dimethyl-phenyl)-2-methyl-pyrrolo[2,3-d]pyrimidine-5-carboxamide] | < 50 | < 50
2 | Cc1ncc2c(C(N)=O)c(N)n(-c3c(C)c(O)cc(F)c3C)c2n1 (atropisomer, axis not shown) [Compound 607, 6-amino-7-(3-fluoro-5-hydroxy-2,6-dimethyl-phenyl)-2-methyl-pyrrolo[2,3-d]pyrimidine-5-carboxamide] | > 1000 | > 1000
3 | Cc1c(O)cc(F)c(C)c1-n1c(N)c(C(N)=O)c2cnc(C3CC3)c(F)c21 (atropisomer, axis not shown) [Compound 655] |  | < 50
4 | Cc1c(O)cc(F)c(C)c1-n1c(N)c(C(N)=O)c2cnc(C3CC3)nc21 (atropisomer, axis not shown) [Compound 656] | < 50 | < 50
5 | Cc1c(O)cc(F)c(C)c1-n1c(N)c(C(N)=O)c2cc(Cl)cnc21 (single isomer, unassigned) [Compound 576, 2-amino-5-chloro-1-(3-fluoro-5-hydroxy-2,6-dimethylphenyl)-1H-pyrrolo[2,3-b]pyridine-3-carboxamide] | 100 to 1000 | 100 to 1000
6 | Cc1ncc2c(C(N)=O)c(N)n(-c3c(C)ccc(O)c3C)c2n1 (single isomer, unassigned) [Compound 577, 6-amino-7-(3-hydroxy-2,6-dimethyl-phenyl)-2-methyl-pyrrolo[2,3-d]pyrimidine-5-carboxamide] |  | < 50
7 | Cc1ncc2c(C(N)=O)c(N)n(-c3c(C)ccc(O)c3C)c2n1 (single isomer, unassigned) [Compound 578, 6-amino-7-(3-hydroxy-2,6-dimethyl-phenyl)-2-methyl-pyrrolo[2,3-d]pyrimidine-5-carboxamide] |  | > 1000
8 | COc1cnc(C)c(-n2c(N)c(C(N)=O)c3cc(Cl)cnc32)c1C [Compound 542, 2-amino-5-chloro-1-(5-methoxy-2,4-dimethylpyridin-3-yl)-1H-pyrrolo[2,3-b]pyridine-3-carboxamide] | > 1000 | 100 to 1000
9 | Cc1ncc(O)c(C)c1-n1c(N)c(C(N)=O)c2cc(Cl)cnc21 [Compound 543] | < 50 | 100 to 1000
10 | Cc1cc2ccoc2c(C)c1-n1c(N)c(C(N)=O)c2cc(Cl)cnc21 [Compound 544, 2-amino-5-chloro-1-(5,7-dimethylbenzofuran-6-yl)-1H-pyrrolo[2,3-b]pyridine-3-carboxamide] | > 1000 | 100 to 1000
11 | Cc1ccc(O)c(C)c1-n1c(N)c(C(N)=O)c2cncnc21 [Compound 547, 6-amino-7-(3-hydroxy-2,6-dimethylphenyl)-7H-pyrrolo [2,3-d]pyrimidine-5-carboxamide] | < 50 | 50 to 100
12 | Cc1cnc2c(c1)c(C(N)=O)c(N)n2-c1c(C)ccc(O)c1N [Compound 556, 2-amino-1-(2-amino-3-hydroxy-6-methylphenyl)-5-methyl-1H-pyrrolo[2,3-b]pyridine-3-carboxamide] | < 50 | < 50
13 | Cc1ccc(O)c(C)c1-n1c(N)c(C(N)=O)c2cnc(NCCO)nc21 [Compound 559, 6-amino-7-(3-hydroxy-2,6-dimethylphenyl)-2-((2-hydroxyethyl)amino)-7H-pyrrolo[2,3-d]pyrimidine-5-carboxamide] | < 50 | < 50
14 | Cc1cc2c(C(N)=O)c(N)n(-c3c(C)ncc(O)c3C)c2nc1C [Compound 560, 2-amino-1-(5-hydroxy-2,4-dimethylpyridin-3-yl)-5,6-dimethyl-1H-pyrrolo[2,3-b]pyridine-3-carboxamide] |  | 100 to 1000
15 | Cc1cnc2c(c1)c(C(N)=O)c(N)n2-c1c(C)ncc(O)c1C [Compound 561, 2-Amino-1-(5-hydroxy-2,4-dimethyl-3-pyridyl)-5-methyl-pyrrolo[2,3-b]pyridine-3-carboxamide] | 50 to 100 | 100 to 1000
16 | Cc1c(O)cc(F)c(C)c1-n1c(N)c(C(N)=O)c2cc(Cl)cnc21 [Compound 565, 2-amino-5-chloro-1-(3-fluoro-5-hydroxy-2,6-dimethylphenyl)-1H-pyrrolo[2,3-b]pyridine-3-carboxamide] | < 50 | < 50
17 | Cc1nc(C)c2c(C(N)=O)c(N)n(-c3c(C)ccc(O)c3C)c2n1 [Compound 566, 6-amino-7-(3-hydroxy-2,6-dimethylphenyl)-2,4-dimethyl-7H-pyrrolo[2,3-d]pyrimidine-5-carboxamide] | < 50 | 100 to 1000
18 | Cc1ccc(O)c(C)c1-n1c(N)c(C(N)=O)c2cnc(N3CC[C@H](O)C3)nc21 [Compound 581, 6-amino-7-(3-hydroxy-2,6-dimethyl-phenyl)-2-[(3S)-3-hydroxypyrrolidin-1-yl]pyrrolo[2,3-d]pyrimidine-5-carboxamide] | < 50 | 

Row | Compound | IC50 (PKMYT1) [nM] | IC50 (LCK) [nM]
19 | Cc1ccc(O)c(C)c1-n1c(N)c(C(N)=O)c2c(C)ncc(F)c21 [Compound 582, 2-amino-7-fluoro-1-(3-hydroxy-2,6-dimethyl-phenyl)-4-methyl-pyrrolo[3,2-c]pyridine-3-carboxamide] | < 50 | 
20 | Cc1ccc(O)c(C)c1-n1c(N)c(C(N)=O)c2cnc(N3CC[C@@H](O)C3)nc21 [Compound 583, 6-amino-7-(3-hydroxy-2,6-dimethyl-phenyl)-2-[(3R)-3-hydroxypyrrolidin-1-yl]pyrrolo[2,3-d]pyrimidine-5-carboxamide] | < 50 | 
21 | Cc1ccc(O)c(C)c1-n1c(N)c(C(N)=O)c2cnc(NC(=O)[C@H]3CCCN3)nc21 [Compound 584, 6-amino-7-(3-hydroxy-2,6-dimethylphenyl)-2-(pyrrolidine-2-carboxamido)-7H-pyrrolo[2,3-d]pyrimidine-5-carboxamide] | 100 to 1000 | 
22 | Cc1ccc(O)c(C)c1-n1c(N)c(C(N)=O)c2cncc(C#N)c21 [Compound 587, 2-amino-7-cyano-1-(3-hydroxy-2,6-dimethylphenyl)-1H-pyrrolo[3,2-c]pyridine-3-carboxamide] | < 50 | 
23 | Cc1ccc(O)c(C)c1-n1c(N)c(C(N)=O)c2cnc(CO)nc21 [Compound 592, 6-amino-7-(3-hydroxy-2,6-dimethylphenyl)-2-(hydroxymethyl)-7H-pyrrolo[2,3-d]pyrimidine-5-carboxamide] | 50 to 100 | 100 to 1000
24 | Cc1ccc(O)c(C)c1-n1c(N)c(C(N)=O)c2cnc(NC(=O)[C@@H]3CCCN3)nc21 [Compound 593, (S)-6-amino-7-(3-hydroxy-2,6-dimethylphenyl)-2-(pyrrolidine-2-carboxamido)-7H-pyrrolo[2,3-d]pyrimidine-5-carboxamide] | < 50 | 100 to 1000
25 | Cc1ncc2c(C(N)=O)c(N)n(-c3c(C)c(O)cc(F)c3C)c2n1 [Compound 595, 6-amino-7-(3-fluoro-5-hydroxy-2,6-dimethyl-phenyl)-2-methyl-pyrrolo[2,3-d]pyrimidine-5-carboxamide] | < 50 | 
26 | Cc1c(O)cc(F)c(C)c1-n1c(N)c(C(N)=O)c2cncc(F)c21 [Compound 599, 2-amino-7-fluoro-1-(3-fluoro-5-hydroxy-2,6-dimethylphenyl)-1H-pyrrolo[3,2-c]pyridine-3-carboxamide] | < 50 | < 50
27 | Cc1ccc(O)c(C)c1-n1c(N)c(C(N)=O)c2cnc(-c3ccc(C(C)(C)C)cc3)nc21 [Compound 600, 6-amino-2-(4-(tert-butyl)phenyl)-7-(3-hydroxy-2,6-dimethylphenyl)-7H-pyrrolo[2,3-d]pyrimidine-5-carboxamide] | 100 to 1000 | 100 to 1000
28 | Cc1ccc(O)c(C)c1-n1c(N)c(C(N)=O)c2cnc(C(F)(F)F)nc21 [Compound 608, 6-amino-7-(3-hydroxy-2,6-dimethylphenyl)-2-(trifluoromethyl)-7H-pyrrolo[2,3-d]pyrimidine-5-carboxamide] | < 50 | 
29 | CCN(CC)c1ncc2c(C(N)=O)c(N)n(-c3c(C)ccc(O)c3C)c2n1 [Compound 609, 6-amino-2-(diethylamino)-7-(3-hydroxy-2,6-dimethylphenyl)-7H-pyrrolo[2,3-d]pyrimidine-5-carboxamide] | < 50 | 
30 | Cc1ccc(O)c(C)c1-n1c(N)c(C(N)=O)c2cnc(Cl)nc21 [Compound 618, 6-amino-2-chloro-7-(3-hydroxy-2,6-dimethylphenyl)-7H-pyrrolo[2,3-d]pyrimidine-5-carboxamide] | < 50 | 
31 | Cc1ncc2c(C(N)=O)c(N)n(-c3c(C)c(O)cc(Cl)c3C)c2n1 [Compound 619, 6-amino-7-(3-chloro-5-hydroxy-2,6-dimethylphenyl)-2-methyl-7H-pyrrolo[2,3-d]pyrimidine-5-carboxamide] | < 50 | 
32 | Cc1ccc(O)c(C)c1-n1c(N)c(C(N)=O)c2cc3c(nc21)CCN3 [Compound 620] | < 50 | 
33 | Cc1ccc(O)c(C)c1-n1c(N)c(C(N)=O)c2cnc(C#CC3CC3)nc21 [Compound 621] | < 50 | 
34 | Cc1ccc(O)c(C)c1-n1c(N)c(C(N)=O)c2cnc(C#Cc3ccc(F)cc3)c(F)c21 [Compound 622, 2-amino-7-fluoro-6-((4-fluorophenyl)ethynyl)-1-(3-hydroxy-2,6-dimethylphenyl)-1H-pyrrolo[3,2-c]pyridine-3-carboxamide] | 50 to 100 | 
35 | Cc1c(O)cc(F)c(C)c1-n1c(N)c(C(N)=O)c2cnc(C3CC3)c(F)c21 [Compound 623, 2-amino-6-cyclopropyl-7-fluoro-1-(3-fluoro-5-hydroxy-2,6-dimethyl-phenyl)pyrrolo[3,2-c]pyridine-3-carboxamide] | < 50 | 
36 | Cc1ccc(O)c(C)c1-n1c(N)c(C(N)=O)c2cnc(S(C)(=O)=O)nc21 [Compound 625, 6-amino-7-(3-hydroxy-2,6-dimethylphenyl)-2-(methylsulfonyl)-7H-pyrrolo[2,3-d]pyrimidine-5-carboxamide] | < 50 | 
